Experimental data from patent US20160106439A1, “PNEUMATIC TOURNIQUET” (BIONUMERIK PHARMACEUTICALS, INC., priority 2013, published 2016).

Legend:
Recombinant human Trx [1] = target: T1, Recombinant human Trx (Homo sapiens, UniProt P10599); test: Native PAGE of Trx incubated with Tavocept; type: binding; design: purchased Sigma (SigmaAldrich); host or cells: E. coli; details: Tavocept 10 mM, 37° C., 0-48 hours
T1 sequence (P10599 1-105): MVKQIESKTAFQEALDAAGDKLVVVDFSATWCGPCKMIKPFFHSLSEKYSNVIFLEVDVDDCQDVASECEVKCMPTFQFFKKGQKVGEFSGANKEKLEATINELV
Method: Recombinant human Trx (1.5 mg, SigmaAldrich) was reduced using a vast excess of DTT (50 mM) in Tris buffer (100 mM, pH 8.0) at 37° C. for 50 minutes. […] (final reactions volumes were approximately 160 μL). At time selected times (0-48 hours), aliquots were removed and subjected to TrisGlycine Native or TrisGlycine SDS PAGE analysis. Gels were fixed in acetic acid/methanol and stained with Coomassie R-250.
Recombinant human Trx (1.5 mg) was reduced using a vast excess of DTT (50 mM) in Tris buffer (100 mM, pH 8.0) at 37° C. for 50 minutes. […] (final incubation reaction volumes were approximately 160 μL). At time selected times (0-48 hours), aliquots were removed and subjected to TrisGlycine Native or TrisGlycine SDS PAGE analysis. Gels were fixed in acetic acid/methanol and stained with Coomassie R-250.

[2] = target: T2, human glutaredoxin (Grx1) (Homo sapiens, UniProt P35754); test: Mass Spectroscopy of Grx-Tavocept reaction; type: binding; details: 40 mM Tavocept, 4° C. overnight
T2 construct: 6xHis (TEV-cleavable) (N, cleaved yes); made in house; host or cells: E. coli BL21 (RIPL)
T2 sequence (P35754 whole entry): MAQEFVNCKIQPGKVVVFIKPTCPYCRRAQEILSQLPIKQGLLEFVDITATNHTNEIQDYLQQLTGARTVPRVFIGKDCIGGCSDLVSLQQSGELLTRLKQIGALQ

[3] = test system: Stage IV primary adenocarcinoma of the lung; test: Tavocept Phase III Clinical Trial (Interim Analysis); type: in vivo, patients
Text: In the Tavocept Phase III Clinical Trial pre-specification was made through stratification factors including sex (i.e., male versus female) and taxane treatment (i.e., paclitaxel versus docetaxel). Eligible patients had not received prior drug treatment for their cancer, and inclusion in the trial was also allowed for patients who had relapsed following surgery for earlier stage disease as well as patients with central nervous system metastasis. A total of 540 patients were enrolled on the trial.
The primary endpoint of this study was overall survival (OS); defined as the time period from the date of patient randomization to the date of death due to any cause.
All patients received standard combination chemotherapy (taxane agent plus cisplatin) and either Tavocept or placebo.
The primary endpoint for analysis was the duration of overall survival, defined as the time from the date of randomization to the date of death due to any cause. The number of mortality events used for the final analysis depended upon the number of patients enrolled into the study (provided the sample size was adjusted at the interim analysis). For the primary analysis, the expected number of total mortality events was approximately 416 mortality events for a sample size of 575 patients.
The one-sided log-rank test was performed in order to allow the application of the adaptive methodology. Details of this 2-stage adaptive design are described below. Kaplan-Meier survival curves (including identification of censored observations) was presented by treatment group, as well as median survival times and their 95% confidence intervals.
The following specific endpoints were evaluated with pre-specified analyses in order to evaluate for potential clinically and statistically significant differences between Tavocept- and placebo-treated patients.
The incidence of cisplatin renal toxicity and anemia, and the impact of emesis on daily life were analyzed using the Cochran-Mantel-Haenszel (CMH) tests for proportions. The CMH test was applied in the comparison between Tavocept and placebo where adjustment for prognostic factors is clinically important (e.g., adjusting for baseline characteristics). To control for Type I error due to multiple comparisons of safety data, a nominal, 2-sided p-value of less than 0.0125 was used for each comparison of renal toxicity, anemia, and emesis.

Recombinant human Trx [4] = target: T1, Recombinant human Trx; test: IEF PAGE of Trx incubated with Tavocept; type: binding; design: purchased Sigma (SigmaAldrich); host or cells: E. coli; details: Tavocept 10 mM, 37° C.
thioredoxin = target: T3, thioredoxin (Homo sapiens, UniProt P10599); test: LC-MS of thioredoxin incubations; type: binding; details: ion at m/z 1288.3
T3 construct: purchased Sigma (SigmaAldrich); host or cells: E. coli

ROS1 kinase = ROS1 kinase (Homo sapiens, UniProt P08922); test: ROS1 kinase assays; type: biochemical; design: Recombinant human ROS1 kinase (residues 1883-2347), containing an N-terminal GST tag; purchased SignalChem; host or cells: Sf9 insect cells (baculovirus)
Sequence of ROS1 kinase (P08922 1883-2347): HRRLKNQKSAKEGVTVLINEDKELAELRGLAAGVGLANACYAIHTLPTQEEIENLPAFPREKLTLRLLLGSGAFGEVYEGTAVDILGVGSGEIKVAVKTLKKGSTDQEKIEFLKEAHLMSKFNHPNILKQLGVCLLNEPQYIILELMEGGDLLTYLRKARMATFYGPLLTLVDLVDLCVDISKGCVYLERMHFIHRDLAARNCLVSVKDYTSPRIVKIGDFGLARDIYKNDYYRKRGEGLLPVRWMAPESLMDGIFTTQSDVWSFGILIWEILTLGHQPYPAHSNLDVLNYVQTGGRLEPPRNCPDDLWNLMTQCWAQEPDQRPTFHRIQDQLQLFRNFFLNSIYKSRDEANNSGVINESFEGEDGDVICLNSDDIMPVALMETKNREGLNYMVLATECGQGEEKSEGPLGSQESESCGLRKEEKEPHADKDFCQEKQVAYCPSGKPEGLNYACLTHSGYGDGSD

[5] = test system: human breast, ovarian and lymphoma cancer cell lines; test: Interference with paclitaxel induced apoptosis (PARP cleavage, Bcl-2 phosphorylation, DNA laddering); type: cell-based
Text: Tavocept mediates the non-enzymatic xenobiotic modification of sulfur-containing amino acid residues (e.g., cysteine) on proteins. As an engineered, non-naturally occurring agent (i.e., xenobiotic), Tavocept is autocatalytic and requires no protein cofactor to cause the xenobiotic modification of cysteine, but appears to be specific for cysteine residues located within a particular structural context (i.e., not all cysteines in a protein are so modified). Tavocept-mediated, xenobiotic modification represents a novel mechanism of action for a cancer treating agent and can be compared to a degree with post-translational modifications of cysteine residues in proteins (see, Table 3, below).

[6] = target: human peroxiredoxin 4 (PRX4) (Homo sapiens, UniProt Q13162); test: Tavocept-derived mesna adducts on Prx 4 (MS, X-ray crystallography)
Sequence of human peroxiredoxin 4 (PRX4) (Q13162 79-271 limits assumed): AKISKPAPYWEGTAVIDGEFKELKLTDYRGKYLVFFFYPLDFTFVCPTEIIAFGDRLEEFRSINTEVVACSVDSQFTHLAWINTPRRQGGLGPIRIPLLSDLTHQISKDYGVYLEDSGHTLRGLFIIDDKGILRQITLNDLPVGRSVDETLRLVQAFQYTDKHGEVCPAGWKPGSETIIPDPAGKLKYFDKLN

[7] = Female Non-Smokers receiving paclitaxel and cisplatin
[8] = Females receiving paclitaxel and cisplatin
[9] = Male & Female Non-Smokers receiving paclitaxel and cisplatin

SMILES: O=S(=O)([O-])CCSSCCS(=O)(=O)[O-].[Na+].[Na+] [Tavocept, disodium 2,2′-dithio-bis-ethane sulfonate]
- Tris-glycine native gel electrophoresis profile of Trx (Recombinant human Trx [1]): altered Tris-glycine native gel electrophoresis profile
- Tavocept-derived mesna adducts per molecule of Grx [2]: one to two
- Median survival [3, 7]: 27.0 months
- Median survival advantage vs placebo [3, 7]: 13.6 months
- Median survival [3, 8]: 25.0 months
- Median survival advantage vs placebo [3, 8]: 11.8 months
- Median survival [3, 9]: 25.2 months
- Median survival advantage vs placebo [3, 9]: 12 months
- Median survival advantage vs placebo ([3]; PS 1 ECOG Performance Status subjects): 2.82 months
- Median survival advantage vs placebo ([3]; PS 1 ECOG females receiving paclitaxel and cisplatin): 11.1 months
- Median survival advantage vs placebo ([3]; PS 1 ECOG males and females receiving paclitaxel and cisplatin): 4.0 months
- Median survival ([3]; Stage IV M1b subjects): 11.33 months
- 2-year survival ([3]; all females receiving paclitaxel and cisplatin): 51%
- 2-year survival ([3]; all subjects receiving paclitaxel and cisplatin): 30%
- Overall median survival advantage vs placebo ([3]; all subjects, paclitaxel or docetaxel plus cisplatin, P=0.723): greater than 2 month
- Protection against chemotherapy-induced kidney toxicity ([3]; compared to placebo, P=0.0528): improvement in the relative creatine decrease from baseline
- Anemia ([3]; compared to the placebo arm): reduced anemia
- 2-year survival ([3]; female non-smokers receiving paclitaxel and cisplatin): 72.4%
- Median survival advantage vs placebo ([3]; female subjects >=65 years receiving paclitaxel and cisplatin): 2.1 months
- Median survival ([3]; female subjects receiving paclitaxel plus cisplatin, Newly Diagnosed): 25.0 months
- Median survival ([3]; female subjects receiving paclitaxel plus cisplatin, no subsequent therapy): 14.2 months
- Survival vs placebo ([3]; female subjects with CNS Metastases, paclitaxel plus cisplatin, P=0.0343): Survival advantage in favor of Tavocept
- 2-year survival ([3]; male and female non-smokers receiving paclitaxel and cisplatin): 63%
- Median survival advantage vs placebo ([3]; male and female subjects >=65 years receiving paclitaxel and cisplatin): 3.5 months
- Median survival ([3]; male and female subjects receiving paclitaxel plus cisplatin, Newly Diagnosed): 15.3 months
- Median survival ([3]; male and female subjects receiving paclitaxel plus cisplatin, no subsequent therapy): 10.0 months
- Median period of additional survival after starting new chemotherapy, longer than placebo ([3]; patients previously receiving Tavocept, paclitaxel and cisplatin): 3.4 months
- Median overall survival from randomization ([3]; patients receiving post-study new chemotherapy, paclitaxel and cisplatin): 23.0 months
- Median survival ([3]; subjects Newly Diagnosed at enrollment): 14.19 months
- Median survival advantage vs placebo ([3]; subjects greater than or equal to 65 years of age): 3 months
- Median survival ([3]; subjects who received paclitaxel and cisplatin): 15.4 months
- Median survival advantage vs placebo ([3]; subjects who received paclitaxel and cisplatin instead of docetaxel and cisplatin): 3.68 months
- Median survival ([3]; subjects with CNS Metastases present): 11.76 months
- Overall survival, patients receiving post study therapy ([3]; vs 9.2 months placebo): 12.2 months
- Trx migration on IEF gel (Recombinant human Trx [4]): shift in Trx migration
- mesna adduct on thioredoxin fragment CMPTFQFFK (thioredoxin): Cys73-mesna adduct
- Inhibition of ROS1 kinase (ROS1 kinase): directly inhibit ROS1 kinase in a time-dependent manner
- Effect on Crizotinib inhibition of ROS1 kinase (ROS1 kinase; Tavocept incubated with ROS1 kinase prior to initiation of the kinase assays): potentiation of Crizotinib inhibition
- Modification of ROS1 kinase (ROS1 kinase; time dependent): BNP7787 xenobiotically modifies ROS1 kinase in
- interference with paclitaxel induced apoptosis [5]: does not interfere
- number of Tavocept-derived mesna moieties on Prx 4 ([6]; Mass Spectroscopy after reaction with Tavocept): 2
- Prx 4 cysteine bound by Tavocept-derived mesna moiety ([6]; X-ray, 2.3 Å, 40 mM Tavocept): Cys124
